According to patent US9833497B2, “Human originated EGF domain proteins and use of the same” (CHENGDU SOURCEBIO LIMITED-LIABILITY COMPANY, priority 2013, dated 2017):

Columns and labels:
Assay type in all cases: cell-based
Aeromonas hydrophila = assay: MIC against Gram-negative bacteria: Aeromonas hydrophila; settings: A. hydrophila; 10 h cultivation at 37° C.; 5×10^5 CFU/mL
Outline: (§1)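 MIC, the lowest recombinant protein concentration giving no bacterial growth, found by two-fold serial dilution of human EGF-domain proteins in triplicate. Inoculum 5×10^5 CFU/mL in LB from cultures at McFarland 0.5; plates incubated at 37° C, 175 rpm shaking.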

Citrobacter diversus = assay: MIC against Gram-negative bacteria: Citrobacter diversus; settings: C. diversus; 10 h cultivation at 37° C.; 5×10^5 CFU/mL
Outline: as §1

Serratia marcescens = assay: MIC against Gram-negative bacteria: Serratia marcescens; settings: S. marcescens; 10 h cultivation at 37° C.; 5×10^5 CFU/mL
Outline: as §1

Enterobacter cloacae = assay: MIC against Gram-negative bacteria: Enterobacter cloacae; settings: E. cloacae; 10 h cultivation at 37° C.; 5×10^5 CFU/mL
Outline: as §1

Proteus vulgaris = assay: MIC against Gram-negative bacteria: Proteus vulgaris; settings: P. vulgaris; 10 h cultivation at 37° C.; 5×10^5 CFU/mL
Outline: as §1

Moraxella catarrhalis = assay: MIC against Gram-negative bacteria: Moraxella catarrhalis; settings: M. catarrhalis; 10 h cultivation at 37° C.; 5×10^5 CFU/mL
Outline: as §1

Proteus mirabilis = assay: MIC against Gram-negative bacteria: Proteus mirabilis; settings: P. mirabilis; 10 h cultivation at 37° C.; 5×10^5 CFU/mL
Outline: as §1

E. coli DH5α = assay: Antibacterial activity: MIC and growth curve against E. coli DH5α in 96-well plate; settings: minimal inhibitory concentration against E. coli DH5α; 96-well plate, 5×10^5 CFU/mL, 37° C., judged after 8 h
Outline: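 Log-phase bacteria (OD600 ~0.5) resuspended in LB at 5×10^5 CFU/mL, exposed to recombinant protein at 50, 25, 12.5 μg/mL final in triplicate, 37 °C shaking at 175 rpm. OD600 read every 30 min; MIC is lowest concentration showing no growth.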

E. coli BL21 = assay: MIC against Gram-negative bacteria: E. coli BL21; settings: E. coli BL21; 10 h cultivation at 37° C.; 5×10^5 CFU/mL
Outline: as §1

Klebsiella pneumonia = assay: MIC against Gram-negative bacteria: Klebsiella pneumonia; settings: K. pneumonia; 10 h cultivation at 37° C.; 5×10^5 CFU/mL
Outline: as §1

Pseudomonas aeruginosa = assay: MIC against Gram-negative bacteria: Pseudomonas aeruginosa; settings: P. aeruginosa; 10 h cultivation at 37° C.; 5×10^5 CFU/mL
Outline: as §1

Substance | MIC (Aeromonas hydrophila) [µg/mL] | MIC (Citrobacter diversus) [µg/mL] | MIC (Serratia marcescens) [µg/mL] | MIC (Enterobacter cloacae) [µg/mL] | MIC (Proteus vulgaris) [µg/mL] | MIC (Moraxella catarrhalis) [µg/mL] | MIC (Proteus mirabilis) [µg/mL] | MIC (E. coli DH5α) [µg/mL] | MIC (E. coli BL21) [µg/mL] | MIC (Klebsiella pneumonia) [µg/mL] | MIC (Pseudomonas aeruginosa) [µg/mL]
PRT420 (DIDECVTGIHNCSINETCFNIQGGFRCLAFECPENYRRSAATLQQEKTDTVRCI; listed as Homo sapiens) | 12.5 | 50 | 50 | 50 | 100 | 12.5 | 50 | 50 | 25 | 25 | 12.5
PRT421 (DQDECLLLPGELCQHLCINTVGSYHCACFPGFSLQDDGRTCR; listed as Homo sapiens) | 50 | 12.5 | 25 | 12.5 | 12.5 | 50 | 25 | 12.5 | 50 | 50 | 12.5
PRT422 (DVDECALGTHNCSEAETCHNIQGSFRCLRFECPPNYVQVSKTKCE; listed as Homo sapiens) | 25 | 12.5 | 25 | 12.5 | 12.5 | 12.5 | 25 | 12.5 | 25 | 25 | 12.5
PRT423 (QPNTCKDNGPCKQVCSTVGGSAICSCFPGYAIMADGVSCE; listed as Homo sapiens) | 25 | 12.5 | 12.5 | 50 | 25 | 25 | 50 | 12.5 | 25 | 25 | 12.5
PRT424 (DINECVTDLHTCSRGEHCVNTLGSFHCYKALTCEPGYALKDGECE; listed as Homo sapiens) | 50 | 25 | 25 | 25 | 50 | 12.5 | 25 | 25 | 50 | 12.5 | 25
PRT425 (DVDECAMGTHTCQPGFLCQNTKGSFYCQARQRCMDGFLQDPEGNCV; listed as Homo sapiens) | 25 | 50 | 50 | 12.5 | 12.5 | 12.5 | 50 | 12.5 | 25 | 25 | 50
PRT426 (DINECTSLSEPCRPGFSCINTVGSYTCQRNPLICARGYHASDDGTKCV; listed as Homo sapiens) | 12.5 | 12.5 | 50 | 50 | 25 | 12.5 | 12.5 | 12.5 | 50 | 50 | 50
PRT427 (DVNECETGVHRCGEGQVCHNLPGSYRCDCKAGFQRDAFGRGCI; listed as Homo sapiens) | 12.5 | 25 | 25 | 25 | 12.5 | 50 | 25 | 25 | 12.5 | 50 | 25
PRT428 (DVNECWASPGRLCQHTCENTLGSYRCSCASGFLLAADGKRCE; listed as Homo sapiens) | 25 | 12.5 | 12.5 | 50 | 50 | 50 | 12.5 | 50 | 25 | 25 | 12.5
PRT429 (DVNECEAQRCSQECANIYGSYQCYCRQGYQLAEDGHTCT; listed as Homo sapiens) | 12.5 | 50 | 25 | 50 | 50 | 12.5 | 25 | 12.5 | 12.5 | 12.5 | 50
PRT430 (DIDECAQGAGILCTFRCLNVPGSYQCACPEQGYTMTANGRSCK; listed as Homo sapiens) | 25 | 50 | 12.5 | 12.5 | 50 | 25 | 12.5 | 12.5 | 25 | 25 | 50
PRT431 (DIDECRTIPEACRGDMMCVNQNGGYLCIPRTNPVYRGPYSN; listed as Homo sapiens) | 12.5 | 50 | 12.5 | 50 | 25 | 12.5 | 50 | 50 | 12.5 | 12.5 | 50
PRT432 (DVDECATDSHQCNPTQICINTEGGYTCSCTDGYWLLEGQCL; listed as Homo sapiens) | 50 | 25 | 25 | 25 | 50 | 12.5 | 25 | 25 | 50 | 12.5 | 25
PRT433 (DIDECRYGYCQQLCANVPGSYSCTCNPGFTLNEDGRSCQ; listed as Homo sapiens) | 12.5 | 50 | 50 | 50 | 12.5 | 12.5 | 50 | 12.5 | 25 | 12.5 | 12.5
PRT434 (DVNECATENPCVQTCVNTYGSFICRCDPGYELEEDGVHCS; listed as Homo sapiens) | 50 | 12.5 | 25 | 12.5 | 12.5 | 50 | 25 | 12.5 | 50 | 50 | 12.5
PRT435 (DMDECSFSEFLCQHECVNQPGTYFCSCPPGYILLDDNRSCQ; listed as Homo sapiens) | 25 | 12.5 | 50 | 12.5 | 25 | 25 | 12.5 | 12.5 | 25 | 25 | 12.5
PRT436 (DINECEHRNHTCNLQQTCYNLQGGFKCIDPIRCEEPYLRISDNRCM; listed as Homo sapiens) | 50 | 12.5 | 100 | 12.5 | 50 | 50 | 12.5 | 12.5 | 25 | 25 | 50
PRT437 (DEDECAAGNPCSHSCHNAMGTYYCSCPKGLTIAADGRTCQ; listed as Homo sapiens) | 25 | 50 | 50 | 12.5 | 25 | 25 | 12.5 | 50 | 12.5 | 25 | 50
